# Laboratory results published in US9636336B2, “Aminoester derivatives” (CHIESI FARMACEUTICI S.p.A., priority 2015, dated 2017).
# Like-named read-outs stand apart in the source and are kept apart here.
# What was measured:
# Human recombinant PDE4B2 = Human recombinant PDE4B2 (Homo sapiens (Human), UniProt Q07343); test: PDE4B2 HTRF assay; format: biochemical
# Procedure: PDE4B2 activity is detected using the LANCE Ultra cAMP homogeneous time resolved fluorescence resonance energy transfer (TR-FRET) assay from Perkin Elmer. The assay is based on the competition between the europium (Eu) chelate-labeled cAMP tracer and sample cAMP for binding sites on cAMP-specific monoclonal antibodies (mAb) labelled with the ULight™ dye. The assay is carried out in 384-well low volume plates in a volume of 10 μl. Human recombinant PDE4B2 (80 pM) is incubated for 2 h with 3 nM cAMP in buffer containing 1×HBSS, 5 mM HEPES, 3 mM MgCl2, 0.1% BSA, pH 7.4 with or without test compounds. The enzymatic reactions are efficiently stopped by the addition of 500 μM IBMX present in the combined Stop/Detection buffer containing europium (Eu) chelate-labeled cAMP tracer and cAMP-specific monoclonal antibodies (mAb) labelled with the ULight™ dye. […] IC50 values are determined from competition curves using a non-linear curve fitting program.
# [1] = molecular target: Human M3 receptor membranes (Homo sapiens (Human), UniProt P20309); test: M3 Receptor radioligand binding assay
# Procedure: M3 Receptor Radioligand Binding Assay:
# The assay is carried out in 96-well polypropylene plates in a volume of 250 μl. […] The final assay concentration of DMSO is 0.5% (v/v). The plates are sealed and incubated for 2 h at room temperature on an orbital shaker (slow speed). Membranes are harvested onto 96-well unifilter GF/C filter plates pre-treated with 0.5% polyethyleneimine (v/v), using a filter manifold, washed four times with 200 μl of assay buffer. The plates are dried before addition of 50 μl of microscint-0, sealed then read in a Trilux Microbeta scintillation counter. IC50 values are determined from competition curves using a non-linear curve fitting program. Ki values are calculated from IC50 values by the Cheng and Prusoff equation.
# [2] = test system: Cch-evoked bronchoconstriction in rats; test: Bronchospasm, percentage of inhibition (Cch-induced bronchoconstriction, duration of action); format: in vivo, Male CD Sprague Dawley rats; settings: rat
# Procedure: Protocol of Bronchospasm—Percentage of Inhibition
# Male CD Sprague Dawley rats (220-250 g) were purchased from Charles River Laboratories Italy (Calco, Lecco). Prior to use animals were acclimated for at least 5 days to the local vivarium conditions (room temperature: 20-24° C.; relative humidity: 40-70%), having free access to standard rat chow and softened tap water. All the procedures were performed in animal operating rooms according to ethical guidelines for the conduct of animal research (D. L.vo 116/92).
# Treatment with Test Compounds
# Animals were anaesthetised with Urethane (1.2 g/kg, i.p.) and a laryngoscope was moved forward into the mouth to visualize the trachea and guide the insertion of the tip of a custom made small diameter cannula directly into the trachea and located 1-2 mm above the bifurcation. Test compounds were dissolved in 100% dimethyl sulphoxide (DMSO) at 10^−2 M. The target concentration was obtained by dilution of the DMSO stock in saline. Test compounds were instilled locally into the trachea in a volume of 125 μl.
# In order to assess the residual inhibitory activity of test compounds at 1-16 hours after their administration, rats were surgically prepared. In order to assess the Cch-induced bronchoconstriction in rats, the infusion of physiological solution was stopped and the bronchospastic agent injected into the jugular vein using the same cannula. Soon after washing the cannula with saline to ensure the complete administration of the bronchoconstrictor agent, the saline infusion was started again. Body temperature was kept constant at 37° C. by a heated blanket.
# The trachea was cannulated and the lungs were ventilated artificially with a small animal constant volume ventilator (rodent ventilator mod. 7025, Ugo Basile, Comerio, Varese, Italy) at a frequency of 80 strokes/min and at a tidal volume of 2.5 ml/kg. To avoid spontaneous breathing, the animals were injected intravenously (i.v.) with pancuronium bromide (2 mg/kg). Bronchoconstriction was induced by the i.v. injection of Cch 50 μg/kg. In control experiments, repeated injections of this dose produced reproducible short-lasting (1-2 min duration) bronchospasms. Bronchoconstriction, quantified as a reduction of tidal volume, was evaluated according to the method described by Konzett & Roessler in Konzett H. and Roessler R., Versuchanornungzu untersuchungen ande bronchialmuskulatur. Arch. Exp. Path. Pharmak.; 195:71-74 (1940), which is incorporated herein by reference in its entirety.
# Systemic blood pressure and changes in airway resistance were monitored with a digital pressure transducer connected to a bridge amplifier (PowerLab; Ugo Basile, Italy) and recorded using Chart 5 software (Ugo Basile, Italy).
# After stabilization of artificial breathing and blood pressure, animals were injected (i.v.) with Cch every 3 min, until 3 stable and reproducible basal responses were obtained. […] The effect of test compounds was expressed as % inhibition of Cch-evoked bronchoconstriction in time-matched, vehicle-treated, animals (controls).
# [3] = M3 Receptor radioligand binding assay, read-out: M3 IC50 activity
# [4] = PDE4B2 HTRF assay, read-out: PDE4B2 IC50 activity
# Human recombinant PDE4B2, sequence (Q07343 other isoform, or with tags, fused parts or gaps): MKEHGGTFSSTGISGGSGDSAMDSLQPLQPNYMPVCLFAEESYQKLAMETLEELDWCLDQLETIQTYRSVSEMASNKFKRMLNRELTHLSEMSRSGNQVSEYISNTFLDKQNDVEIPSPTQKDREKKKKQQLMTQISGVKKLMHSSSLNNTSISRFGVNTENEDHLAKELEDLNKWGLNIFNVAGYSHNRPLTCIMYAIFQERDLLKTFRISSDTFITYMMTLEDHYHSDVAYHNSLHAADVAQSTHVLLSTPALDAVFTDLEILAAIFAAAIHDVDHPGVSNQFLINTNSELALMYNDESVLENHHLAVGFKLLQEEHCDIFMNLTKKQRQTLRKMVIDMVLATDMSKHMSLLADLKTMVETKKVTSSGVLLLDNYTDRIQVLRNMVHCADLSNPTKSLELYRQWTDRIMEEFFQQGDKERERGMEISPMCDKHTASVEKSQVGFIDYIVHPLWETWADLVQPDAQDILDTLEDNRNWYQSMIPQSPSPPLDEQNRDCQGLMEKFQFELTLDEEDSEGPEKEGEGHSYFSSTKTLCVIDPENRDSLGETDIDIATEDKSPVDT
# Human M3 receptor membranes, sequence (P20309 whole entry): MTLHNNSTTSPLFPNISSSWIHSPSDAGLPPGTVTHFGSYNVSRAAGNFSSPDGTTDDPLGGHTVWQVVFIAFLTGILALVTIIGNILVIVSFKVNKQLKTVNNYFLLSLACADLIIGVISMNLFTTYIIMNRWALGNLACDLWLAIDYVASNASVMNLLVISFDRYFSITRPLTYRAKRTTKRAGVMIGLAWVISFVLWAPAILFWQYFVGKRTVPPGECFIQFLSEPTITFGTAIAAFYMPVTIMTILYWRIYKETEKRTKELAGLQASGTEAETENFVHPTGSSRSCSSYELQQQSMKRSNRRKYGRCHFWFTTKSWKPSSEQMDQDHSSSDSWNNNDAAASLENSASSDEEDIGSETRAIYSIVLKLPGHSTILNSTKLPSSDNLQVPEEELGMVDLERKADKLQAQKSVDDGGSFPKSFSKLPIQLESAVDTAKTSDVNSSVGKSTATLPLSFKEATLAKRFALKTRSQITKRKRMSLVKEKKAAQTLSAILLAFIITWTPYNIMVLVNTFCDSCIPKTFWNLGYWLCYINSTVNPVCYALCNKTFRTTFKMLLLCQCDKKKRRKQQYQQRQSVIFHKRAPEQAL
IC50 (Human recombinant PDE4B2; [4]),Structure (SMILES),"IC50 [1, 3]",other results
–,"COc1ccc([C@H](Cc2c(Cl)c[n+]([O-])cc2Cl)OC(=O)c2ccc(CNC(C(=O)OCC3CCN(C)CC3)C3CCCCC3)s2)cc1OC (stereo partly drawn) [Example 9, [(1S)-2-(3,5-dichloro-1-oxido-pyridin-1-ium-4-yl)-1-(3,4-dimethoxyphenyl)ethyl]5-[[[1-cyclohexyl-2-[(1-methyl-4-piperidyl)methoxy]-2-oxo-ethyl]amino]methyl]thiophene-2-carboxylate]",10 to 100 nM,IC50 (Human recombinant PDE4B2; read-out: PDE4B2 IC50 activity): 1 to 10 nM
1 to 10 nM,"COc1ccc([C@H](Cc2c(Cl)c[n+]([O-])cc2Cl)OC(=O)c2ccc(CNC(C(=O)OCC3CN(C)C3)c3ccccc3)s2)cc1OC (stereo partly drawn) [Example 25, [(1S)-2-(3,5-dichloro-1-oxido-pyridin-1-ium-4-yl)-1-(3,4-dimethoxyphenyl)ethyl] 5-[[[2-[(1-methylazetidin-3-yl)methoxy]-2-oxo-1-phenyl-ethyl]amino]methyl]thiophene-2-carboxylate]",1 to 10 nM,–
1 to 10 nM,"COc1ccc([C@H](Cc2c(Cl)c[n+]([O-])cc2Cl)OC(=O)c2ccc(CNC(C(=O)OC[C@H]3CN(C)CCN3C)c3ccccc3)s2)cc1OC (stereo partly drawn) [Example 29, [(1S)-2-(3,5-dichloro-1-oxido-pyridin-1-ium-4-yl)-1-(3,4-dimethoxyphenyl)ethyl] 5-[[[2-[[(2R)-1,4-dimethylpiperazin-2-yl]methoxy]-2-oxo-1-phenyl-ethyl]amino]methyl]thiophene-2-carboxylate]",10 to 100 nM,–
1 to 10 nM,"COc1ccc([C@H](Cc2c(Cl)c[n+]([O-])cc2Cl)OC(=O)c2ccc(CNC(C(=O)OCC3CCCCN3C)c3ccccc3)s2)cc1OC (stereo partly drawn) [Example 31, [(1S)-2-(3,5-dichloro-1-oxido-pyridin-1-ium-4-yl)-1-(3,4-dimethoxyphenyl)ethyl] 5-[[[2-[(1-methyl-2-piperidyl)methoxy]-2-oxo-1-phenyl-ethyl]amino]methyl]thiophene-2-carboxylate]",10 to 100 nM,–
1 to 10 nM,"COc1ccc([C@H](Cc2c(Cl)c[n+]([O-])cc2Cl)OC(=O)c2ccc(CNC(C(=O)OC[C@@H]3CN(C)CCN3C)c3ccccc3)s2)cc1OC (stereo partly drawn) [Example 32, [(1S)-2-(3,5-dichloro-1-oxido-pyridin-1-ium-4-yl)-1-(3,4-dimethoxyphenyl)ethyl] 5-[[[2-[[(2S)-1,4-dimethylpiperazin-2-yl]methoxy]-2-oxo-1-phenyl-ethyl]amino]methyl]thiophene-2-carboxylate]",10 to 100 nM,–
1 to 10 nM,"COc1ccc(C(Cc2c(Cl)c[n+]([O-])cc2Cl)OC(=O)c2ccc(CNC(C(=O)OCC3CCN(C)CC3)c3cccc(O)c3)s2)cc1OCC1CC1 (stereo not shown) [Example 47, [1-[3-(cyclopropylmethoxy)-4-methoxy-phenyl]-2-(3,5-dichloro-1-oxido-pyridin-1-ium-4-yl)ethyl]5-[[[1-(3-hydroxyphenyl)-2-[(1-methyl-4-piperidyl)methoxy]-2-oxo-ethyl]amino]methyl]thiophene-2-carboxylate]",1 to 10 nM,–
–,"COc1ccc([C@H](Cc2c(Cl)c[n+]([O-])cc2Cl)OC(=O)c2ccc(CNC(C(=O)OCC3CCN(C)CC3)c3ccccc3)s2)cc1OC (stereo partly drawn) [Example 87, [(1S)-2-(3,5-dichloro-1-oxido-pyridin-1-ium-4-yl)-1-(3,4-dimethoxyphenyl)ethyl] 5-[[[2-[(1-methyl-4-piperidyl)methoxy]-2-oxo-1-phenyl-ethyl]amino]methyl]thiophene-2-carboxylate]",–,"sub-maximal inhibition Dose ([2]; Dose producing about 80% (sub-maximal) inhibition of the bronchospasm after 1 h, intratracheal): 10 nmol/kg; inhibition at 16 h ([2]; inhibition of bronchospasm 16 h after intratracheal administration of the sub-maximal inhibition dose): >90%"
1 to 10 nM,"COCCOc1cc([C@H](Cc2c(Cl)c[n+]([O-])cc2Cl)OC(=O)c2ccc(CNC(C(=O)OCC3CCN(C)CC3)c3ccccc3)s2)ccc1OC(F)F (stereo partly drawn) [Example 113, [(1S)-2-(3,5-dichloro-1-oxido-pyridin-1-ium-4-yl)-1-[4-(difluoromethoxy)-3-(2-methoxyethoxy)phenyl]ethyl] 5-[[[2-[(1-methyl-4-piperidyl)methoxy]-2-oxo-1-phenyl-ethyl]amino]methyl]thiophene-2-carboxylate]",1 to 10 nM,–
–,"COc1ccc([C@H](Cc2c(Cl)c[n+]([O-])cc2Cl)OC(=O)c2ccc(CNC(C(=O)OCC3C[C@H]4CC[C@@H](C3)N4C)c3ccccc3)s2)cc1OC (stereo partly drawn) [Example 114, [(1S)-2-(3,5-dichloro-1-oxido-pyridin-1-ium-4-yl)-1-(3,4-dimethoxyphenyl)ethyl] 5-[[[2-[[(1R,5S)-8-methyl-8-azabicyclo[3.2.1]octan-3-yl]methoxy]-2-oxo-1-phenyl-ethyl]amino]methyl]thiophene-2-carboxylate]",–,IC50 (Human recombinant PDE4B2): 1 to 10 nM; IC50 [1]: 10 to 100 nM

Structure (SMILES),IC50 (Human recombinant PDE4B2; [4]),"IC50 [1, 3]",other results
"COc1ccc([C@H](Cc2c(Cl)c[n+]([O-])cc2Cl)OC(=O)c2ccc(CNC(C(=O)OC[C@@H]3CCCN(C)C3)c3ccccc3)s2)cc1OC (stereo partly drawn) [Example 14, [(1S)-2-(3,5-dichloro-1-oxido-pyridin-1-ium-4-yl)-1-(3,4-dimethoxyphenyl)ethyl]5-[[[2-[[(3R)-1-methyl-3-piperidyl]methoxy]-2-oxo-1-phenyl-ethyl]amino]methyl]thiophene-2-carboxylate]",1 to 10 nM,1 to 10 nM,–
"COc1ccc([C@H](Cc2c(Cl)c[n+]([O-])cc2Cl)OC(=O)c2ccc(CNC(C(=O)OC[C@@H]3CCN(C)C3)c3ccccc3)s2)cc1OC (stereo partly drawn) [Example 17, [(1S)-2-(3,5-dichloro-1-oxido-pyridin-1-ium-4-yl)-1-(3,4-dimethoxyphenyl)ethyl] 5-[[[2-[[(3R)-1-methylpyrrolidin-3-yl]methoxy]-2-oxo-1-phenyl-ethyl]amino]methyl]thiophene-2-carboxylate]",1 to 10 nM,1 to 10 nM,–
"COc1ccc([C@H](Cc2c(Cl)c[n+]([O-])cc2Cl)OC(=O)c2ccc(CNC(C(=O)OC[C@H]3CCN(C)C3)c3ccccc3)s2)cc1OC (stereo partly drawn) [Example 18, [(1S)-2-(3,5-dichloro-1-oxido-pyridin-1-ium-4-yl)-1-(3,4-dimethoxyphenyl)ethyl] 5-[[[2-[[(3S)-1-methylpyrrolidin-3-yl]methoxy]-2-oxo-1-phenyl-ethyl]amino]methyl]thiophene-2-carboxylate]",1 to 10 nM,1 to 10 nM,–
"COc1ccc([C@H](Cc2c(Cl)c[n+]([O-])cc2Cl)OC(=O)c2ccc(CNC(C(=O)OC[C@@H]3CCCN(C)C3)c3ccccc3)s2)cc1OC (stereo partly drawn) [Example 49, [(1S)-2-(3,5-dichloro-1-oxido-pyridin-1-ium-4-yl)-1-(3,4-dimethoxyphenyl)ethyl]5-[[[2-[[(3R)-1-methyl-3-piperidyl]methoxy]-2-oxo-1-phenyl-ethyl]amino]methyl]thiophene-2-carboxylate]",1 to 10 nM,10 to 100 nM,–
"COc1ccc([C@H](Cc2c(Cl)c[n+]([O-])cc2Cl)OC(=O)c2ccc(CNC(CO)(C(=O)OCC34CCN(CC3)CC4)c3ccccc3)s2)cc1OC (stereo partly drawn) [Example 117, [(1S)-2-(3,5-dichloro-1-oxido-pyridin-1-ium-4-yl)-1-(3,4-dimethoxyphenyl)ethyl]5-[[[1-(hydroxymethyl)-2-oxo-1-phenyl-2-(quinuclidin-4-ylmethoxy)ethyl]amino]methyl]thiophene-2-carboxylate]",1 to 10 nM,< 1 nM,–
